Common to all, as to assay: NCI tumour cell line growth inhibition, 48 h
Assay [1] deals with SK-OV-3 ovarian.
The test system of assay [2] is A549 NSCLC.
Assay [3] deals with HS 578T breast.
In assay [4] the test system is MOLT-4 leukemia.
The test system of assay [5] is OVCAR-4 ovarian.
For assay [6], the system named is NCI-H522 lung.
Assay [7] has as its system M14 melanoma.
The test system of assay [8] is SK-MEL-2 melanoma.
In assay [9] the test system is OVCAR-8 ovarian.
Assay [10] concerns EKVX NSCLC.

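Growth conditions: 96-well plates. Treatment: test compound, 48 hours, 5 concentrations. Analysis: linear interpolation between bracketing concentrations; unreached endpoints set to highest concentration. At the GI50, growth is halved. At the TGI there is no net growth.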 Bounds are passed on as bounds.

Regarding `OCc1ccc(N(CCN2CCCC2)Cc2ccc(F)cc2)cc1Cl`, the GI50 is 7.88 µM in [1]; 6.5 µM in assay [2]; 20.9 µM in assay [3]; 25.2 µM in [4]; 11.1 µM in assay [5]; 16.8 µM in assay [6]. Besides, the GI50 is 14.3 µM in [7], 17 µM in assay [8] and 14 µM in [9]. The TGI in assay [1] is 31 µM; in [2] it was 27.9 µM; in assay [3], 80.1 µM; in assay [4] it was 62.7 µM; in assay [5], more than 100 µM; in [6] it was 34.4 µM. Further, the TGI in assay [7] stood at 30.9 µM; in assay [8], 33 µM; in assay [9], 30.3 µM.
With `O=C(Nc1cccc(-n2cc(-c3ccncc3)c(-c3ccc(O)c(Cl)c3)n2)c1)Nc1cccc(C(F)(F)F)c1`, the GI50 was 3.59 µM in [1]; 1.93 µM in assay [2]; 1.51 µM in assay [3]; 1.68 µM in assay [4]; 1.55 µM in assay [6]; 1.74 µM in [7]. The figures for the GI50 in assay [8] and in assay [9] were 2.35 µM and 2.41 µM, respectively. Further, the TGI in [1] came to 23.1 µM; in assay [2], 8.09 µM; in assay [3], 7.08 µM; in assay [4], 4.94 µM; in [6], 4.31 µM; in assay [7] it was 3.94 µM. Besides, the TGI is 4.75 µM in assay [8] and 11.1 µM in assay [9].
Regarding `CNCCCNCCCN1C(=O)c2ccc3c4c(ccc(c24)C1=O)C(=O)N(CCCNCc1ccccc1OC)C3=O`, the GI50 in [1] was 2.95 µM; in assay [2], 0.577 µM; in [3] it was 3.02 µM; in assay [4] it was 0.534 µM; in assay [5], 0.642 µM; in assay [6] it was 1.23 µM. For the same molecule, the figures for the GI50 in assay [7], in [8] and in assay [9] were 1.32 µM, 1.75 µM and 0.797 µM, respectively. Besides, the TGI in assay [1] was found to be 23.7 µM; in assay [2], 4.97 µM; in assay [3] it was 28.5 µM; in assay [4] it was 3.55 µM; in [5], 2.04 µM; in assay [6] it was 2.83 µM. The TGI in assay [7] was 2.79 µM; in assay [8] it was 3.97 µM; in [9] it was 9.43 µM.
Regarding `CCOC(=O)Nc1nc2c(C)cccc2s1`, the GI50 in [1] is more than 100 µM; in assay [2], 43.9 µM; in assay [3], 36.1 µM; in assay [4], 38.1 µM; in assay [5] it was 43.2 µM; in [6] it was 47.8 µM. In addition, the GI50 in assay [7] was 53 µM; in assay [8], 85.8 µM; in assay [9] it was 52.8 µM. The TGI in assay [1], in [2], in [3], in assay [4], in assay [5] and in assay [6] was more than 100 µM throughout. Besides, the TGI in assay [7], in assay [8] and in [9] was more than 100 µM throughout.
Regarding `Clc1ccc(Nc2ccnc(NCCCNc3ccnc4cc(Cl)ccc34)n2)cc1`, the GI50 is 1.57 µM in assay [1]; 1.73 µM in assay [2]; 1.73 µM in [3]; 1.95 µM in assay [6]; 1.98 µM in assay [8]; 1.82 µM in [9]. The TGI in assay [1] is 2.94 µM; in [2] it was 3.35 µM; in assay [3] it was 3.8 µM; in assay [6] it was 3.68 µM; in [8], 3.61 µM; in [9] it was 3.62 µM.
As for `Cn1c(=O)c(Oc2ccccc2)cc2cnc(NC3CCOCC3)nc21`, the GI50 in assay [1], in assay [2], in assay [3], in assay [4], in assay [5] and in assay [6] was more than 25 µM throughout. Further, the GI50 in assay [7], in assay [8] and in assay [9] was more than 25 µM in each case. The TGI in assay [1], in assay [2], in [3], in assay [4], in [5] and in assay [6] was more than 25 µM each time. Also, the TGI in [7], in assay [8] and in [9] was more than 25 µM each time.
With `CCOC(=O)c1cc(C(=O)c2cc(OC)c(OC)c(OC)c2)n2ccccc12`, the GI50 was 0.164 µM in assay [1]; 0.134 µM in [2]; 0.123 µM in [3]; 0.182 µM in [4]; 0.0577 µM in assay [6]; 0.0377 µM in assay [7]. Moreover, the GI50 in assay [8] was 0.169 µM; in assay [10], 0.342 µM; in assay [9], 0.259 µM. For the same molecule, the TGI was more than 100 µM in assay [1]; more than 100 µM in assay [2]; 46.6 µM in [3]; more than 100 µM in assay [4]; more than 37.1 µM in assay [6]; 0.388 µM in assay [7]. The TGI in assay [8] was more than 74.8 µM; in assay [10], more than 100 µM; in assay [9], more than 100 µM.
On to `CC(C)Nc1ncc2cc(Oc3ccc(F)cc3F)c(=O)n(C)c2n1`, for which the GI50 in assay [1] is more than 25 µM; in [2] it was more than 25 µM; in [3], 11.6 µM; in [4] it was more than 25 µM; in assay [5], more than 25 µM; in assay [6] it was more than 25 µM. Besides, the GI50 in assay [7], in assay [8] and in assay [9] was more than 25 µM each time. The TGI in [1], in [2], in assay [3], in [4], in assay [5] and in [6] was more than 25 µM in each case. Moreover, the TGI in assay [7], in assay [8] and in assay [9] was more than 25 µM in each case.
On to `CCSc1nnc(-c2ccc3ccccc3c2O)n1-c1ccc(Cl)cc1`, for which the GI50 in assay [1] was 69.5 µM; in assay [2], 4.51 µM; in assay [3], 85.4 µM; in assay [5] it was 5.71 µM; in [6], 5.15 µM; in [7], 8.11 µM. The figures for the GI50 in assay [8] and in assay [9] were more than 100 µM and 5.5 µM, respectively. Besides, the TGI in assay [1], in assay [2], in assay [3], in assay [5], in assay [6] and in assay [7] was more than 100 µM each time. For the same molecule, the TGI in assay [8] and in [9] was more than 100 µM in each case.
Turning to `COc1ccc(-c2csc(NC(=O)c3cc(O)c(O)c(O)c3)n2)cc1`, the GI50 is 17.2 µM in assay [1]; 10.3 µM in [2]; 19.3 µM in assay [3]; 2.3 µM in assay [4]; 7.27 µM in assay [5]; 1.32 µM in assay [6]. The figures for the GI50 in assay [7] and in [9] were 10.4 µM and 7.52 µM, respectively. Also, the TGI in assay [1] was more than 33.3 µM; in [2], more than 33.3 µM; in assay [3] it was more than 33.3 µM; in [4], more than 33.3 µM; in assay [5] it was more than 33.3 µM; in assay [6], 6.89 µM. Moreover, the TGI in assay [7] and in [9] was more than 33.3 µM throughout.
Regarding `Cc1cc2cn3c4cccnc4[nH]c(=O)c3c2cc1C`, the GI50 in assay [1] was 1.8 µM; in [3] it was 1.85 µM; in [4] it was 2.25 µM; in assay [5], 1.6 µM. For the same molecule, the TGI worked out at 3.2 µM in assay [1], 4.38 µM in assay [3], 4.53 µM in [4] and 3.19 µM in assay [5].
With `CCCN(CCSSCCNc1nc(N(C)O)nc(N(C)O)n1)c1nc(N(C)O)nc(N(C)O)n1`, the GI50 in assay [1] is 3.16 µM; in [2], 7.59 µM; in [3], 25.5 µM; in assay [4], 3.72 µM; in assay [5], 3.29 µM; in assay [6], 92.1 µM. For the same molecule, the GI50 in assay [7] was 5.68 µM; in assay [8], 18.6 µM; in [9], 5.26 µM. In addition, the TGI in [1], in [2], in [3], in [4], in assay [5] and in [6] was more than 100 µM throughout. The TGI in assay [7], in assay [8] and in assay [9] was more than 100 µM each time.
For the molecule `CN1CCN(c2ccc(C(=O)Nc3cc(-c4cccc(NS(=O)(=O)c5ccccc5)c4)[nH]n3)cc2)CC1`, the GI50 was 11.7 µM in assay [1]; 7.85 µM in [2]; 1.7 µM in assay [3]; 3 µM in assay [4]; 6.42 µM in assay [5]; 3.29 µM in assay [6]. Moreover, the GI50 is 6.13 µM in assay [7], 6.85 µM in [8] and 13.4 µM in assay [9]. Further, the TGI in [1] is 30.9 µM; in [2], 25.4 µM; in assay [3] it was 10.4 µM; in assay [4], 12.5 µM; in [5] it was 28.7 µM; in assay [6], 13.2 µM. Moreover, the values for the TGI in assay [7], in assay [8] and in [9] were 20.3 µM, 20.2 µM and 32.3 µM, respectively.

The values are drawn from PubChem BioAssay (NCI).
